Converted amounts (≈) assume the structure as drawn.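 Cultured in 96-well plates, cells were exposed to test compound for 48 hours across five concentrations. GI50 marks 50% less growth. TGI is the concentration that stops growth completely.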
Columns and labels:
Assay in all cases: NCI anticancer screen, dose series, 48 h
SK-MEL-5 melanoma = system: SK-MEL-5 melanoma
A549 NSCLC = system: A549 NSCLC
OVCAR-3 ovarian = system: OVCAR-3 ovarian
SN12C renal = system: SN12C renal
SK-MEL-28 melanoma = system: SK-MEL-28 melanoma
SW-620 colon = system: SW-620 colon
SF-268 CNS = system: SF-268 CNS
OVCAR-5 ovarian = system: OVCAR-5 ovarian
HOP-92 NSCLC = system: HOP-92 NSCLC
HCT-15 colon = system: HCT-15 colon
SNB-19 CNS = system: SNB-19 CNS

Structure (SMILES)	TGI (SK-MEL-5 melanoma)	TGI (A549 NSCLC)	TGI (OVCAR-3 ovarian)	TGI (SN12C renal) [µM]	TGI (SK-MEL-28 melanoma)	TGI (SW-620 colon) [µM]	TGI (SF-268 CNS)	TGI (OVCAR-5 ovarian)	TGI (HOP-92 NSCLC)	TGI (HCT-15 colon)	TGI (SNB-19 CNS)	GI50 (HOP-92 NSCLC)	GI50 (SK-MEL-5 melanoma) [µg/mL]	GI50 (A549 NSCLC) [µg/mL]	GI50 (OVCAR-3 ovarian) [µg/mL]	GI50 (SK-MEL-28 melanoma) [µg/mL]	GI50 (SF-268 CNS) [µg/mL]	GI50 (OVCAR-5 ovarian) [µg/mL]	GI50 (HCT-15 colon) [µg/mL]	GI50 (SNB-19 CNS) [µg/mL]
O=C(O)CCC(NC(=O)c1ccc(Nc2cnc3cc(C(F)(F)F)ccc3n2)cc1)C(=O)O (stereo unspecified)	> 100 µM	> 100 µM	> 100 µM	> 100	> 100 µM	> 100	> 100 µM	> 100 µM	> 100 µM	> 100 µM	> 100 µM	–	–	–	–	–	–	–	–	–
O=Cc1cn(CCCCCCCCn2cc(C=O)c3ccccc32)c2ccccc12	> 10 µM	> 10 µM	> 10 µM	> 10	> 10 µM	> 10	> 10 µM	> 10 µM	–	> 10 µM	> 10 µM	–	–	–	–	–	–	–	–	–
ICC1CCCO1 (stereo unspecified)	> 100 µM	> 100 µM	–	> 100	> 100 µM	> 100	> 100 µM	> 100 µM	> 100 µM	> 100 µM	> 100 µM	–	–	–	–	–	–	–	–	–
CCN(CC)CCNc1ccc2ncn3c4ccc(OC)cc4c(=O)c1c23	20 µM	9.71 µM	24.2 µM	18.3	28.4 µM	11.1	14.4 µM	24 µM	23 µM	15.1 µM	21.4 µM	–	–	–	–	–	–	–	–	–
O=C(NN1C(=O)CS(=O)(=O)C1c1ccc(Cl)c(Cl)c1)c1ccncc1 (stereo unspecified)	> 100 µM	> 100 µM	> 100 µM	> 100	> 100 µM	> 100	> 100 µM	> 100 µM	> 100 µM	> 100 µM	> 100 µM	–	–	–	–	–	–	–	–	–
CC(=O)[O-].CC(=O)[O-].O=C(N/N=C/c1cc(Cl)cc(Cl)c1[OH2+])c1ccncc1.[Mn+2]	11 µM	79.7 µM	0.956 µM	21.2	25 µM	8.09	27.2 µM	8.49 µM	9.91 µM	25.1 µM	36.1 µM	4.71 µM	–	–	–	–	–	–	–	–
Cc1cc(O)c2c(c1)C(=O)c1c(c(O)cc(O)c1-c1c(O)cc(O)c3c1C(=O)c1cc(C)cc(O)c1C3=O)C2=O	30.6 µM	65.9 µM	21.6 µM	41.2	70.8 µM	124	75.4 µM	85 µM	34.4 µM	38 µM	12.4 µM	–	–	–	–	–	–	–	–	–
Cc1nc2nc(C)n(CCN3CCOCC3)c(=O)c2c(-c2cccc([N+](=O)[O-])c2)c1C(=O)CCCCCCCCCCN1CCC(c2ccccc2)(c2ccccc2)CC1	4.3 µg/mL	5.24 µg/mL	4.19 µg/mL	–	4.34 µg/mL	–	4.26 µg/mL	4.03 µg/mL	1.25 µg/mL	3.17 µg/mL	4.3 µg/mL	0.0976 µg/mL	2.3 (≈ 2.83 µM)	2.38 (≈ 2.93 µM)	2.21 (≈ 2.72 µM)	2.26 (≈ 2.78 µM)	2.26 (≈ 2.78 µM)	2.07 (≈ 2.55 µM)	1.32 (≈ 1.62 µM)	2.28 (≈ 2.8 µM)
CC1(c2ccccc2)O[C@@H]2C[C@H]3[C@@H]4CCC5=CC(=O)C=C[C@]5(C)[C@@]4(F)[C@@H](O)C[C@]3(C)[C@]2(C(=O)CO)O1 (stereo partly specified)	28.2 µM	29.2 µM	28.7 µM	26.1	30.8 µM	47.1	49 µM	33.1 µM	38.4 µM	36 µM	63.7 µM	–	–	–	–	–	–	–	–	–
CCOP(=O)(C/C=C/Cn1ncc(=O)[nH]c1=O)OCC	> 100 µM	> 100 µM	> 100 µM	> 100	> 100 µM	> 100	> 100 µM	> 100 µM	> 100 µM	> 100 µM	> 100 µM	–	–	–	–	–	–	–	–	–
C=C1CC(OC)(C(OC)C(=O)N[C@H]2OCO[C@H]3C2O[C@H](C[C@@H](COC)OC)C(C)(C)C3OC)O[C@H](C)[C@@H]1C (stereo partly specified)	1.3 µM	5.24 µM	2.96 µM	> 47	3.45 µM	15	–	4 µM	4.76 µM	8.25 µM	3.22 µM	–	–	–	–	–	–	–	–	–
Cc1cc(=O)oc2c1cc1ccc3cccc4ccc2c1c34	> 100 µM	–	> 100 µM	> 100	> 100 µM	> 100	> 100 µM	–	> 100 µM	> 100 µM	> 100 µM	–	–	–	–	–	–	–	–	–
CN1CCC2(c3ccccc3)CC(=O)/C(=C/c3ccc(Cl)c(Cl)c3)C1C2 (stereo unspecified)	8.37 µM	10.9 µM	9.59 µM	3.72	5.59 µM	> 21.6	3.73 µM	6.37 µM	7.33 µM	4.59 µM	5.32 µM	–	–	–	–	–	–	–	–	–

Reference: PubChem BioAssay (NCI)
